In brackets after ≈: the same amount, converted by molar mass. Like-named read-outs stand apart in the source and are kept apart here.
Experiments:
Escherichia coli O157:H7 [1] = test: MIC with/without sub-MIC colistin, Escherichia coli O157:H7; type: cell-based
Procedure, shortened: (§1)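 Compounds plus sub-inhibitory colistin or PMBN; MIC against Gram-negatives, with control antibiotics in parallel.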

Escherichia coli O157:H7 [2] = test: MIC with/without PMBN, Escherichia coli O157:H7; type: cell-based
Procedure, shortened: as §1

P. aeruginosa = test: Broth microdilution MIC, P. aeruginosa; type: cell-based; conditions: Pseudomonas aeruginosa
Pseudomonas aeruginosa [3] = test: MIC with/without sub-MIC colistin, Pseudomonas aeruginosa; type: cell-based
Procedure, shortened: as §1

Escherichia coli Δ acrAB = test: MIC against E. coli 1411 and AcrAB efflux pump deficient E. coli SM1411Δ acrAB; type: cell-based
Procedure, shortened: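 Gram-negative MICs were determined for rhodanines alongside control antibiotics, each combined with sub-inhibitory colistin or PMBN. Further testing used the efflux-deficient E. coli SM1411ΔacrAB, missing the AcrAB multidrug pump.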

Mycobacterium smegmatis = test: Broth microdilution MIC/MBC, Mycobacterium smegmatis; type: cell-based; conditions: Mycolicibacterium smegmatis, ATCC14468, M. Smegmatis ATCC 14468
Pseudomonas aeruginosa [4] = test: MIC with/without PMBN, Pseudomonas aeruginosa; type: cell-based
Procedure, shortened: as §1

B. cereus = test: Broth microdilution MIC/MBC, B. cereus; type: cell-based; conditions: Bacillus cereus; for MBC: read-out: MBC; for MIC: read-out: MIC
Excerpt: The broth microdilution technique was used, followed by subculturing on agar plates that were rhodanine—free.

Klebsiella pneumoniae = test: MIC with/without sub-MIC colistin, Klebsiella pneumoniae; type: cell-based
Procedure, shortened: as §1

[5] = test system: methicillin-resistant Staphylococcus aureus (MRSA); test: Broth microdilution MIC/MBC, MRSA; type: cell-based
Acinetobacter baumannii = test: MIC with/without sub-MIC colistin, Acinetobacter baumannii; type: cell-based
Procedure, shortened: as §1

Candida albicans = test: MIC against Candida albicans; type: cell-based; conditions: table prints none, read-out: MIC
K. pneumoniae = test: Broth microdilution MIC, K. pneumoniae; type: cell-based
Bacillus Strains = test: Broth microdilution MIC50/MIC90 and MIC range, Bacillus strains panel; type: cell-based, Bacillus spp.; conditions: 10 Bacillus strains
Excerpt: The broth microdilution technique was used, followed by subculturing on agar plates that were rhodanine—free. […] The MICs reported represent the lowest concentration of each compound necessary to inhibit bacterial growth and the MBCs represent the lowest concentration required to reduce the initial bacterial inoculum by ≥ 99.9%.

Salmonella Typhimurium = test: MIC with/without sub-MIC colistin, Salmonella Typhimurium; type: cell-based
Procedure, shortened: as §1

[6] = test system: vancomycin resistant enterococci (VRE) E. faecium; test: Broth microdilution MIC/MBC, VRE E. faecium; type: cell-based; conditions: for MIC: read-out: MIC
[7] = NRS201, B. cereus NRS 201 NR-2488
[8] = E. faecium HM 968 Strain ERV102
[9] = E. faecium NR31914 Strain E0120
[10] = E. faecium Patient #1–1 NR-31903

Q: How did the MIC (Escherichia coli O157:H7 [1]; Escherichia coli O157:H7 ATCC 35150, colistin (+) […], read-out: MIC) turn out when O=C(O)[C@H](Cc1ccccc1)N1C(=O)/C(=C/c2cccc(-c3ccccc3)c2)SC1=S [Rh 5] was run?
A: >64 µM

Q: What about the MIC (Escherichia coli O157:H7 [1]; Escherichia coli O157:H7 ATCC 700728, colistin (+) […], read-out: MIC) of the same compound?
A: >64 µM

Q: And the MIC (Escherichia coli O157:H7 [1]; Escherichia coli, ATCC35150)?
A: > 128 µM

Q: What about the MIC (Escherichia coli O157:H7 [1]; Escherichia coli, ATCC700728) of the same compound?
A: > 128 µM

Q: And the MIC (Escherichia coli O157:H7 [2]; Escherichia coli O157:H7 ATCC 35150, PMBN (+) 4 μg/mL, read-out: MIC)?
A: 8 µM (≈ 3.56 µg/mL)

Q: What about the MIC (Escherichia coli O157:H7 [2]; Escherichia coli O157:H7 ATCC 700728, PMBN (+) 4 μg/mL, read-out: MIC) of the same compound?
A: >64 µM

Q: What about the MIC (Escherichia coli O157:H7 [2]; Escherichia coli, ATCC35150) of the same compound?
A: > 256 µM

Q: What about the MIC (Escherichia coli O157:H7 [2]; Escherichia coli, ATCC700728) of the same compound?
A: > 128 µM

Q: And the MIC (P. aeruginosa; ATCC9721)?
A: > 128 µM

Q: And the MIC (P. aeruginosa; ATCC15442)?
A: > 128 µM

Q: What about the MIC (Pseudomonas aeruginosa [3]; Pseudomonas aeruginosa ATCC 921, colistin (+) […], read-out: MIC) of the same compound?
A: >64 µM

Q: What about the MIC (Pseudomonas aeruginosa [3]; Pseudomonas aeruginosa, ATCC921) of the same compound?
A: > 128 µM

Q: What about the MIC (Escherichia coli Δ acrAB; E.coli 1411) of the same compound?
A: > 64 µM

Q: And the MIC (Escherichia coli Δ acrAB; E.coli 1411 SM (Δ acrAB, AcrAB efflux pump deficient))?
A: > 64 µM

Q: What about the MBC (Mycobacterium smegmatis; read-out: MBC) of the same compound?
A: 16 µM (≈ 7.13 µg/mL)

Q: What about the MIC (Mycobacterium smegmatis; read-out: MIC) of the same compound?
A: 16 µM (≈ 7.13 µg/mL)

Q: What about the MIC (Pseudomonas aeruginosa [4]; Pseudomonas aeruginosa ATCC 9721, PMBN (+) 4 μg/mL, read-out: MIC) of the same compound?
A: >64 µM

Q: And the MIC (Pseudomonas aeruginosa [4]; Pseudomonas aeruginosa, ATCC9721)?
A: > 128 µM

Q: And the MBC (B. cereus; B. cereus BAG1O-2 NR-28582)?
A: 4 µM (≈ 1.78 µg/mL)

Q: And the MIC (B. cereus; B. cereus BAG1O-2 NR-28582)?
A: 4 µM (≈ 1.78 µg/mL)

Q: And the MBC (B. cereus; B. cereus BAG1X1-1 NR-28575)?
A: 4 µM (≈ 1.78 µg/mL)

Q: And the MIC (B. cereus; B. cereus BAG1X1-1 NR-28575)?
A: 4 µM (≈ 1.78 µg/mL)

Q: What about the MBC (B. cereus; B. cereus BAG1X2-1 NR-28578) of the same compound?
A: 4 µM (≈ 1.78 µg/mL)

Q: What about the MIC (B. cereus; B. cereus BAG1X2-1 NR-28578) of the same compound?
A: 4 µM (≈ 1.78 µg/mL)

Q: And the MBC (B. cereus; B. cereus G9241 NR-9564)?
A: 8 µM (≈ 3.56 µg/mL)

Q: What about the MIC (B. cereus; B. cereus G9241 NR-9564) of the same compound?
A: 8 µM (≈ 3.56 µg/mL)

Q: What about the MBC (B. cereus; B. cereus VD014 NR-22141) of the same compound?
A: 8 µM (≈ 3.56 µg/mL)

Q: And the MIC (B. cereus; B. cereus VD014 NR-22141)?
A: 4 µM (≈ 1.78 µg/mL)

Q: What about the MBC (B. cereus; B. cereus VD115 NR-22148) of the same compound?
A: 4 µM (≈ 1.78 µg/mL)

Q: And the MIC (B. cereus; B. cereus VD115 NR-22148)?
A: 4 µM (≈ 1.78 µg/mL)

Q: And the MBC (B. cereus; B. cereus VD148 NR-22150)?
A: 4 µM (≈ 1.78 µg/mL)

Q: What about the MIC (B. cereus; B. cereus VD148 NR-22150) of the same compound?
A: 4 µM (≈ 1.78 µg/mL)

Q: What about the MBC (B. cereus; [7]) of the same compound?
A: 4 µM (≈ 1.78 µg/mL)

Q: What about the MIC (B. cereus; [7]) of the same compound?
A: 4 µM (≈ 1.78 µg/mL)

Q: And the MIC (Klebsiella pneumoniae; Klebsiella pneumoniae ATCC BAA 2146, colistin (+) […])?
A: >64 µM

Q: And the MIC (Klebsiella pneumoniae; Klebsiella pneumoniae, BAA2146)?
A: > 128 µM

Q: And the MIC50 ([5]; 11 MRSA strains)?
A: 8 µM (≈ 3.56 µg/mL)

Q: And the MIC90 ([5]; 11 MRSA strains)?
A: 16 µM (≈ 7.13 µg/mL)

Q: And the MBC ([5]; MRSA NRS 1)?
A: 16 µM (≈ 7.13 µg/mL)

Q: And the MIC ([5]; MRSA NRS 1)?
A: 8 µM (≈ 3.56 µg/mL)

Q: What about the MBC ([5]; MRSA NRS 19) of the same compound?
A: 16 µM (≈ 7.13 µg/mL)

Q: And the MIC ([5]; MRSA NRS 19)?
A: 8 µM (≈ 3.56 µg/mL)

Q: And the MBC ([5]; MRSA NRS 37)?
A: 16 µM (≈ 7.13 µg/mL)

Q: What about the MIC ([5]; MRSA NRS 37) of the same compound?
A: 16 µM (≈ 7.13 µg/mL)

Q: What about the MBC ([5]; MRSA NRS 107) of the same compound?
A: 16 µM (≈ 7.13 µg/mL)

Q: And the MIC ([5]; MRSA NRS 107)?
A: 16 µM (≈ 7.13 µg/mL)

Q: And the MBC ([5]; MRSA NRS 119)?
A: 8 µM (≈ 3.56 µg/mL)

Q: What about the MIC ([5]; MRSA NRS 119) of the same compound?
A: 8 µM (≈ 3.56 µg/mL)

Q: And the MBC ([5]; MRSA NRS 382)?
A: 8 µM (≈ 3.56 µg/mL)

Q: What about the MIC ([5]; MRSA NRS 382) of the same compound?
A: 8 µM (≈ 3.56 µg/mL)

Q: And the MBC ([5]; MRSA NRS 383)?
A: 16 µM (≈ 7.13 µg/mL)

Q: What about the MIC ([5]; MRSA NRS 383) of the same compound?
A: 16 µM (≈ 7.13 µg/mL)

Q: And the MBC ([5]; MRSA NRS 384)?
A: 64 µM (≈ 28.5 µg/mL)

Q: And the MIC ([5]; MRSA NRS 384)?
A: 8 µM (≈ 3.56 µg/mL)

Q: What about the MBC ([5]; MRSA NRS 385) of the same compound?
A: 16 µM (≈ 7.13 µg/mL)

Q: What about the MIC ([5]; MRSA NRS 385) of the same compound?
A: 8 µM (≈ 3.56 µg/mL)

Q: What about the MBC ([5]; MRSA NRS 386) of the same compound?
A: 64 µM (≈ 28.5 µg/mL)

Q: What about the MIC ([5]; MRSA NRS 386) of the same compound?
A: 8 µM (≈ 3.56 µg/mL)

Q: What about the MBC ([5]; MRSA NRS 387) of the same compound?
A: 8 µM (≈ 3.56 µg/mL)

Q: And the MIC ([5]; MRSA NRS 387)?
A: 8 µM (≈ 3.56 µg/mL)

Q: And the MIC (Acinetobacter baumannii; Acinetobacter baumannii ATCC BAA747, colistin (+) […], read-out: MIC)?
A: >64 µM

Q: And the MIC (Acinetobacter baumannii; Acinetobacter baumannii ATCC BAA19606, colistin (+) […], read-out: MIC)?
A: >64 µM

Q: And the MIC (Acinetobacter baumannii; Acinetobacter baumannii, ATCCBAA747)?
A: > 128 µM

Q: And the MIC (Acinetobacter baumannii; Acinetobacter baumannii, ATCCBAA19606)?
A: > 128 µM

Q: What about the MIC (Candida albicans; ATCC10231, C. albicans ATCC 10231, unit from abstract) of the same compound?
A: > 64 µM

Q: What about the MIC (Candida albicans; C. albicans NR 29434, unit from abstract) of the same compound?
A: > 64 µM

Q: And the MIC (Candida albicans; C. albicans NR 29435, unit from abstract)?
A: > 64 µM

Q: What about the MIC (Candida albicans; C. albicans NR29437, unit from abstract) of the same compound?
A: > 64 µM

Q: What about the MIC (Candida albicans; C. albicans NR29438, unit from abstract) of the same compound?
A: > 64 µM

Q: What about the MIC (Candida albicans; C. albicans NR 29446, unit from abstract) of the same compound?
A: > 64 µM

Q: And the MIC (Candida albicans; C. albicans NR 29448, unit from abstract)?
A: > 64 µM

Q: What about the MIC (Candida albicans; C. albicans NR 29449, unit from abstract) of the same compound?
A: > 64 µM

Q: And the MIC (Candida albicans; C. albicans NR 29453, unit from abstract)?
A: > 64 µM

Q: What about the MIC (Candida albicans; C. albicans NR 294436, unit from abstract) of the same compound?
A: > 64 µM

Q: And the MIC (K. pneumoniae; K. pneumoniae NR-15417)?
A: >128 µM

Q: What about the MIC (K. pneumoniae; Klebsiella pneumoniae) of the same compound?
A: > 128 µM

Q: What about the MIC50 (Bacillus Strains) of the same compound?
A: 4 µM (≈ 1.78 µg/mL)

Q: And the MIC90 (Bacillus Strains)?
A: 8 µM (≈ 3.56 µg/mL)

Q: And the MIC (Salmonella Typhimurium; Salmonella Typhimurium ATCC 700720, colistin (+) […], read-out: MIC)?
A: >64 µM

Q: What about the MIC (Salmonella Typhimurium; Salmonella enterica, ATCC 700720 / TYPHIMURIUM) of the same compound?
A: > 128 µM

Q: What about the MBC ([6]; E. faecium E417 HM-965) of the same compound?
A: > 64 µM

Q: And the MIC ([6]; E. faecium E417 HM-965)?
A: 8 µM (≈ 3.56 µg/mL)

Q: And the MBC ([6]; E. faecium E1071 NR-28978)?
A: > 64 µM

Q: What about the MIC ([6]; E. faecium E1071 NR-28978) of the same compound?
A: 16 µM (≈ 7.13 µg/mL)

Q: And the MBC [6, 8]?
A: 64 µM (≈ 28.5 µg/mL)

Q: And the MIC [6, 8]?
A: 16 µM (≈ 7.13 µg/mL)

Q: What about the MBC [6, 9] of the same compound?
A: > 64 µM

Q: What about the MIC [6, 9] of the same compound?
A: 16 µM (≈ 7.13 µg/mL)

Q: And the MBC [6, 10]?
A: 64 µM (≈ 28.5 µg/mL)

Q: What about the MIC [6, 10] of the same compound?
A: 8 µM (≈ 3.56 µg/mL)

Reference: paper PMC5053523, “In Vitro Antibacterial Activity of Rhodanine Derivatives against Pathogenic Clinical Isolates” (PLoS ONE, 2016)
